Assay results as given in patent publication US20230002359A1, “PESTICIDALLY ACTIVE FUSED BICYCLIC HETEROAROMATIC COMPOUNDS” (priority 2019, published 2023).
Read-outs that look alike come from different tables or passages of the source.

What was measured:
Type in all cases: in vivo
[1] = test system: Chilo suppressalis (Striped Rice Stemborer); experiment: Example B3: Chilo suppressalis (striped rice stemborer), artificial diet, L2 larvae; conditions: 144 h, read-out: control in at least one of the three categories (mortality, anti-feedant effect, or growth inhibition)
Procedure: 24-well microtiter plates with artificial diet were treated with aqueous test solutions prepared from 10′000 ppm DMSO stock solutions by pipetting. After drying, the plates were infested with L2 larvae (6-8 per well). The samples were assessed for mortality, anti-feeding effect, and growth inhibition in comparison to untreated samples 6 days after infestation. Control of Chilo suppressalis by a test sample is given when at least one of the categories mortality, anti-feedant effect, and growth inhibition is higher than the untreated sample.

[2] = test system: Diabrotica Balteata (Corn Root Worm); experiment: Example B1: Diabrotica balteata (corn root worm), maize sprouts sprayed, L2 larvae; conditions: 96 h, application rate of 200 ppm, 4 days after infestation, L2 larvae, read-out: control in at least one of the two categories (mortality or growth inhibition)
Procedure: Maize sprouts placed onto an agar layer in 24-well microtiter plates were treated with aqueous test solutions prepared from 10′000 ppm DMSO stock solutions by spraying. After drying, the plates were infested with L2 larvae (6 to 10 per well). The samples were assessed for mortality and growth inhibition in comparison to untreated samples 4 days after infestation.

[3] = test system: Plutella xylostella (Diamond Back Moth); experiment: Example B4: Plutella xylostella (diamond back moth), artificial diet, eggs, 24-well; conditions: 192 h, read-out: control in at least one of the two categories (mortality or growth inhibition)
Procedure: 24-well microtiter plates with artificial diet were treated with aqueous test solutions prepared from 10′000 ppm DMSO stock solutions by pipetting. After drying, Plutella eggs were pipetted through a plastic stencil onto a gel blotting paper and the plate was closed with it. The samples were assessed for mortality and growth inhibition in comparison to untreated samples 8 days after infestation.

[4] = application rate of 200 ppm, 6 days after infestation, L2 larvae
[5] = application rate of 200 ppm, 8 days after infestation, eggs

`CC(Nc1nc(Cl)nc2c(Cl)cc(C(F)(F)F)cc12)c1ncnn1-c1ncccn1` (stereo not shown) [P.48, 2,8-dichloro-N-[1-(2-pyrimidin-2-yl-1,2,4-triazol-3-yl)ethyl]-6-(trifluoromethyl)quinazolin-4-amine] was tested, and the percent control (mortality, anti-feedant effect or growth inhibition) at 200 ppm [1, 4] was no less than 80%.

In the case of `CC(Nc1nc(Cl)nc2c(Br)cc(C(F)(F)F)cc12)c1ncnn1-c1ncccn1` (stereo not shown) [P.51, 8-bromo-2-chloro-N-[1-(2-pyrimidin-2-yl-1,2,4-triazol-3-yl)ethyl]-6-(trifluoromethyl)quinazolin-4-amine], the percent control (mortality, anti-feedant effect or growth inhibition) at 200 ppm [1, 4] was no less than 80%.

`CC(c1nccnc1-c1ccc(C#N)cn1)N(CC1CC1)c1ncnc2c(Cl)cc(C(F)(F)F)cc12` (stereo not shown) [P.72, 6-[3-[1-[[8-chloro-6-(trifluoromethyl)quinazolin-4-yl]-(cyclopropylmethyl)amino]ethyl]pyrazin-2-yl]pyridine-3-carbonitrile] gave a percent control (mortality or growth inhibition) at 200 ppm [2] of no less than 80%, a percent control (mortality or growth inhibition) at 200 ppm [3, 5] of no less than 80% and a percent control (mortality, anti-feedant effect or growth inhibition) at 200 ppm [1, 4] of no less than 80%.

`CC(c1nccnc1-c1ccc(C#N)cn1)N(CC1CC1)c1ncnc2c(Br)cc(C(F)(F)F)cc12` (stereo not shown) [P.73, 6-[3-[1-[[8-bromo-6-(trifluoromethyl)quinazolin-4-yl]-(cyclopropylmethyl)amino]ethyl]pyrazin-2-yl]pyridine-3-carbonitrile] was tested, and the percent control (mortality or growth inhibition) at 200 ppm [2] was no less than 80%, the percent control (mortality or growth inhibition) at 200 ppm [3, 5] was no less than 80% and the percent control (mortality, anti-feedant effect or growth inhibition) at 200 ppm [1, 4] was no less than 80%.

Molecule `CC(c1nccnc1-n1nccn1)N(CC1CC1)c1ncnc2c(Cl)cc(C(F)(F)F)cc12` (stereo not shown) [P.76, 8-chloro-N-(cyclopropylmethyl)-N-[1-[3-(triazol-2-yl)pyrazin-2-yl]ethyl]-6-(trifluoromethyl)quinazolin-4-amine] has a percent control (mortality or growth inhibition) at 200 ppm [2] of no less than 80%, a percent control (mortality or growth inhibition) at 200 ppm [3, 5] of no less than 80% and a percent control (mortality, anti-feedant effect or growth inhibition) at 200 ppm [1, 4] of no less than 80%.

Work on `CC(c1nccnc1-n1nccn1)N(CC1CC1)c1ncnc2c(C(F)(F)F)cc(Cl)cc12` (stereo not shown) [P.77, 6-chloro-N-(cyclopropylmethyl)-N-[1-[3-(triazol-2-yl)pyrazin-2-yl]ethyl]-8-(trifluoromethyl)quinazolin-4-amine] yielded a percent control (mortality or growth inhibition) at 200 ppm [2] of no less than 80%, a percent control (mortality or growth inhibition) at 200 ppm [3, 5] of no less than 80% and a percent control (mortality, anti-feedant effect or growth inhibition) at 200 ppm [1, 4] of no less than 80%.

`CC(c1nccnc1-c1ncccn1)N(CC1CC1)c1ncnc2c(C(F)(F)F)cc(Br)cc12` (stereo not shown) [P.80, 6-bromo-N-(cyclopropylmethyl)-N-[1-(3-pyrimidin-2-ylpyrazin-2-yl)ethyl]-8-(trifluoromethyl)quinazolin-4-amine] gave a percent control (mortality or growth inhibition) at 200 ppm [2] of no less than 80%, a percent control (mortality or growth inhibition) at 200 ppm [3, 5] of no less than 80% and a percent control (mortality, anti-feedant effect or growth inhibition) at 200 ppm [1, 4] of no less than 80%.

`CC(c1nccnc1-c1ncccn1)N(CC1CC1)c1ncnc2c(Cl)cc(C(F)(F)F)cc12` (stereo not shown) [P.81, 8-chloro-N-(cyclopropylmethyl)-N-[1-(3-pyrimidin-2-ylpyrazin-2-yl)ethyl]-6-(trifluoromethyl)quinazolin-4-amine] showed a percent control (mortality or growth inhibition) at 200 ppm [2] of no less than 80%, a percent control (mortality or growth inhibition) at 200 ppm [3, 5] of no less than 80% and a percent control (mortality, anti-feedant effect or growth inhibition) at 200 ppm [1, 4] of no less than 80%.

In the case of `CC(Nc1ccnc2c(C(F)(F)F)cc(C(F)(F)F)cc12)c1nccnc1-c1ncccn1` (stereo not shown) [P.85, N-[1-(3-pyrimidin-2-ylpyrazin-2-yl)ethyl]-6,8-bis(trifluoromethyl)quino-lin-4-amine], the percent control (mortality or growth inhibition) at 200 ppm [2] was no less than 80%, the percent control (mortality or growth inhibition) at 200 ppm [3, 5] was no less than 80% and the percent control (mortality, anti-feedant effect or growth inhibition) at 200 ppm [1, 4] was no less than 80%.

For `CC(Nc1ncnc2c(C(F)(F)F)cc(C(F)(F)F)cc12)c1ncnn1-c1ncc(Br)cn1` (stereo not shown) [P.92, N-[1-[2-(5-bromopyrimidin-2-yl)-1,2,4-triazol-3-yl]ethyl]-6,8-bis(trifluoromethyl)quina-zolin-4-amine], the percent control (mortality or growth inhibition) at 200 ppm [2] was no less than 80%, the percent control (mortality or growth inhibition) at 200 ppm [3, 5] was no less than 80% and the percent control (mortality, anti-feedant effect or growth inhibition) at 200 ppm [1, 4] was no less than 80%.

In the case of `CC(Nc1ncnc2c(Br)cc(Cl)cc12)c1ncnn1-c1ccc(C#N)cn1` (stereo not shown) [P.158, 6-[5-[1-[(8-bromo-6-chloro-quinazolin-4-yl)amino]ethyl]-1,2,4-triazol-1-yl]pyridine-3-carbonitrile], the percent control (mortality or growth inhibition) at 200 ppm [3, 5] was no less than 80% and the percent control (mortality, anti-feedant effect or growth inhibition) at 200 ppm [1, 4] was no less than 80%.

`COC(=O)N(c1ncnc2c(C(F)(F)F)cc(C(F)(F)F)cc12)C(C)c1ncnn1-c1ccc(C#N)cn1` (stereo not shown) [P.167, methyl N-[6,8-bis(trifluoromethyl)quina-zolin-4-yl]-N-[1-[2-(5-cyano-2-pyridyl)-1,2,4-triazol-3-yl]ethyl]carbamate] was tested, and the percent control (mortality or growth inhibition) at 200 ppm [3] was no less than 80% and the percent control (mortality, anti-feedant effect or growth inhibition) at 200 ppm [1] was no less than 80%.

For `C[C@@H](c1ncnn1-c1ccc(C#N)cn1)N(C)c1ncnc2c(C(F)(F)F)cc(C(=O)C3CC3)cc12` [P.170, 6-[5-[(1S)-1-[[6-(cyclopropanecarbonyl)-8-(trifluoromethyl)quinazolin-4-yl]-methyl-amino]ethyl]-1,2,4-triazol-1-yl]pyridine-3-carbonitrile], the percent control (mortality or growth inhibition) at 200 ppm [3, 5] was no less than 80% and the percent control (mortality, anti-feedant effect or growth inhibition) at 200 ppm [1, 4] was no less than 80%.

With `CC(c1nccnc1-n1nccn1)N(C)c1ncnc2c(Br)cc(OC(F)(F)F)cc12` (stereo not shown) [P.179, 8-bromo-N-methyl-N-[1-[3-(triazol-2-yl)pyrazin-2-yl]ethyl]-6-(trifluoromethoxy)quinazo-lin-4-amine] the percent control (mortality or growth inhibition) at 200 ppm [2] was no less than 80%, the percent control (mortality or growth inhibition) at 200 ppm [3, 5] was no less than 80% and the percent control (mortality, anti-feedant effect or growth inhibition) at 200 ppm [1, 4] was no less than 80%.

In the case of `CC(c1nccnc1-n1nccn1)N(C)c1ncnc2c(OC(F)F)cc(Br)cc12` (stereo not shown) [P.180, 6-bromo-8-(difluoromethoxy)-N-methyl-N-[1-[3-(triazol-2-yl)pyrazin-2-yl]ethyl]quinazolin-4-amine], the percent control (mortality or growth inhibition) at 200 ppm [2] was no less than 80%, the percent control (mortality or growth inhibition) at 200 ppm [3, 5] was no less than 80% and the percent control (mortality, anti-feedant effect or growth inhibition) at 200 ppm [1, 4] was no less than 80%.

For `C[C@@H](c1ncnn1-c1ncccn1)N(C)c1c(Cl)cnc2c(C(F)(F)F)cc(C(F)(F)F)cc12` [P.181, 3-chloro-N-methyl-N-[(1S)-1-(2-pyrimidin-2-yl-1,2,4-triazol-3-yl)ethyl]-6,8-bis(trifluoromethyl)quinolin-4-amine], the percent control (mortality or growth inhibition) at 200 ppm [2] was no less than 80% and the percent control (mortality or growth inhibition) at 200 ppm [3, 5] was no less than 80%.

In the case of `CC(Nc1ncnc2c(Br)cc(C(F)(F)F)cc12)c1ncnn1-c1ccc(F)cn1` (stereo not shown) [P.186, 8-bromo-N-[1-[2-(5-fluoro-2-pyridyl)-1,2,4-triazol-3-yl]ethyl]-6-(trifluoromethyl)quinazolin-4-amine], the percent control (mortality or growth inhibition) at 200 ppm [2] was no less than 80%, the percent control (mortality or growth inhibition) at 200 ppm [3, 5] was no less than 80% and the percent control (mortality, anti-feedant effect or growth inhibition) at 200 ppm [1, 4] was no less than 80%.

`CC(Nc1ncnc2c(C(F)(F)F)cc(C(F)(F)F)cc12)c1ncnn1-c1ccc(OC(F)F)cn1` (stereo not shown) [P.193, N-[1-[2-[5-(difluoromethoxy)-2-pyridyl]-1,2,4-triazol-3-yl]ethyl]-6,8-bis(trifluoromethyl)quina-zolin-4-amine] showed a percent control (mortality or growth inhibition) at 200 ppm [2] of no less than 80%, a percent control (mortality or growth inhibition) at 200 ppm [3, 5] of no less than 80% and a percent control (mortality, anti-feedant effect or growth inhibition) at 200 ppm [1, 4] of no less than 80%.

In the case of `CC(c1nccnc1-c1ccc(Br)cn1)N(C)c1ncnc2c(C(F)(F)F)cc(Br)cc12` (stereo not shown) [P.196, 6-bromo-N-[1-[3-(5-bromo-2-pyridyl)pyrazin-2-yl]ethyl]-N-methyl-8-(trifluoromethyl)quinazolin-4-amine], the percent control (mortality or growth inhibition) at 200 ppm [2] was no less than 80%.

With `CC(Nc1ncnc2c(C(F)(F)F)cc(Br)cc12)c1nccnc1-c1ccc(Br)cn1` (stereo not shown) [P.198, 6-bromo-N-[1-[3-(5-bromo-2-pyridyl)pyrazin-2-yl]ethyl]-8-(trifluoromethyl)quinazolin-4-amine] the percent control (mortality or growth inhibition) at 200 ppm [3, 5] was no less than 80% and the percent control (mortality, anti-feedant effect or growth inhibition) at 200 ppm [1, 4] was no less than 80%.

For `CC(Nc1nccc2c(C(F)(F)F)cc(C(F)(F)F)cc12)c1ncnn1-c1ccc(C#N)cn1` (stereo not shown) [P.210, 6-[5-[1-[[5,7-bis(trifluoromethyl)-1-isoquinolyl]amino]ethyl]-1,2,4-triazol-1-yl]pyridine-3-carbonitrile], the percent control (mortality or growth inhibition) at 200 ppm [2] was no less than 80% and the percent control (mortality or growth inhibition) at 200 ppm [3, 5] was no less than 80%.

For `CC(Nc1ncnc2c(C(F)(F)F)cc(C(F)(F)F)cc12)c1ncnn1-c1ccc(F)cn1` (stereo not shown) [P.233, N-[1-[2-(5-fluoro-2-pyridyl)-1,2,4-triazol-3-yl]ethyl]-6,8-bis(trifluoromethyl)quina-zolin-4-amine], the percent control (mortality or growth inhibition) at 200 ppm [3, 5] was no less than 80%.

With `CC(Nc1ncnc2c(Cl)cc(C(F)(F)F)cc12)c1ncnn1-c1ccc(Br)cn1` (stereo not shown) [P.267, N-[1-[2-(5-bromo-2-pyridyl)-1,2,4-triazol-3-yl]ethyl]-8-chloro-6-(trifluoromethyl)quinazolin-4-amine] the percent control (mortality, anti-feedant effect or growth inhibition) at 200 ppm [1, 4] was no less than 80%.

In the case of `CC(Nc1ncnc2c(C(F)(F)F)cc(C(F)(F)F)cc12)c1ncnn1-c1ccc(Br)cn1` (stereo not shown) [P.268, N-[1-[2-(5-bromo-2-pyridyl)-1,2,4-triazol-3-yl]ethyl]-6,8-bis(trifluoromethyl)quina-zolin-4-amine], the percent control (mortality or growth inhibition) at 200 ppm [2] was no less than 80% and the percent control (mortality or growth inhibition) at 200 ppm [3, 5] was no less than 80%.
